Where no end group is shown, it is not given here.
How the values were obtained:
bovine red blood cells = test: Hemolysis (erythrocyte leakage) assay; type: cell-based; conditions: peptide alone 10 μM, 2% RBCs in HBG pH 5.5, 37°C, 1 h, absorbance 450 nm, n = 3 in triplicates
Experimental: The hemolysis experiments were carried out with bovine red blood cells (RBCs) (Håtunalab, Sweden). The cells were washed three times with HBG 7.4 and then diluted to a final concentration of 2% RBCs in HBG with noted pH. Ten microliters of peptides was added to 190 μL of cells in PCR plates and shaken at 37°C for 1 h. Then the cells were spun down at 500 × g, and 100 μL of supernatant was transferred to transparent 96‐well tissue culture plates. The absorbance of released hemoglobin was measured at 450 nm on a plate reader (Tecan Sunrise, Switzerland). As a positive control, 10% Triton X‐100 was used, while HBG served as a negative control. The percentage of hemolysis was calculated by the formula: hemolysis (%) = [(AS − AN)/(AP − AN)] × 100, where AS is the absorbance for the sample, AP for positive control, and AN for negative control. The results are shown as mean ± SEM of n = 3, done in triplicates.

siRNA = test: Heparin displacement assay (complex stability); type: physicochemical; conditions: peptide/siRNA complexes at MR30 in MQ water, heparin at different concentrations, 15 min RT, SYBR Gold fluorescence, n = 3 in duplicates
Experimental: For the heparin displacement assay, peptide/siRNA complexes were formed in MQ water at MR30. Fifty microliters of complexes was then transferred to each well of a black 96‐well plate and mixed with 100 μL of 2X SYBR Gold dye (Thermo Fisher Scientific, USA), incubated, and then 50 μL of heparin (Sigma‐Aldrich, USA) solution with different concentrations was added. After 15 min at RT, the fluorescence was measured by Synergy Mx Microplate Reader (BioTek, USA) (ex = 495 nm, em = 537 nm) to determine the amount of accessible siRNA in the complexes. The data was normalized to the fluorescence of free siRNA (defined as 100%) and are expressed as a percentage of accessible siRNA. The results are shown as mean ± SEM of n = 3 in duplicates.

[1] = CD spectroscopy, secondary structure estimation; type: physicochemical; conditions: CD in MQ water, 100 μM peptide, 25°C, Reed's estimation; for proportion of alpha helical structure: 1-mm cuvette
Experimental: CD spectra were recorded on a Jasco J‐1500 CD spectrometer (Jasco, Japan) at 25°C at a concentration of 100 μM. Peptides were dissolved in MQ water and measured using 1‐mm pathlength quartz cuvette. The secondary structure estimates were calculated on the “Protein Secondary Structure Estimation” plugin in the Spectra Manager 2.13 software by using Reed's estimation.

[2] = DLS size, PDI and zeta potential of peptide/siRNA complexes; type: physicochemical
Experimental: The physicochemical properties (nanoparticle size, polydispersity index [PDI], and zeta potential) of peptide/siLuc complexes were measured by DLS (dynamic light scattering) using the Zetasizer Nano ZS apparatus (Malvern Instruments, UK).
The size and zeta potential of peptide/siLuc particles were measured at MR30 for hPep1, hPep2, and Ctrl peptide. For hPep3, measurements were also taken at different MRs (5–35). The complexes were formulated in 50 μL at a 2 μM final siRNA concentration for size measurement. The average diameter was obtained from three technical replicates, and one measurement was set to five runs (run duration 8 s) in disposable ZEN0040 cuvettes (Malvern Instruments, UK).
To measure the zeta potential, the complexes were diluted eight times in 10 mM HEPES 7.4 buffer. The zeta potential was obtained from three technical measurements in disposable DTS1070 cuvettes (Malvern Instruments, UK) with the number of runs set to automatic. The results are shown as an average of three separate experiments (mean ± SEM). All measurements were performed at 22°C.

[3] = cited from earlier work
Excerpt: Given that the differences in the peptide hydrophobicity and amphipathicity come from the number of carbons introduced by the alanine and alkenyl‐alanine side chains: three carbons for Ctrl peptide, 13 and 17 for hPep1 an ...

[4] = DLS, peptide/siLuc complexes at MR30, 2 μM siRNA, 22°C, mean of n = 3

stability of the NPs against heparin (siRNA release) (siRNA) | proportion of alpha helical structure [1] | random structure estimate [1] | NP size (hydrodynamic diameter) [2, 4] | zeta potential of the complexes ([2]; all tested MRs (5-35)) | zeta potential ([2]; peptide/siLuc complexes at MR30, diluted eight times in 10 mM HEPES 7.4, 22°C, mean of n = 3) | PDI [2, 4] | Substance | hemolytic (lytic) activity (bovine red blood cells) | order of hydrophobicity of the peptides [3]
Ctrl < hPep1 < hPep2 < hPep3 | zero | > 60% | ~ 2000 nm | stayed negative at all tested MRs | −23.7 mV |  | LAKLAKAAAKLLKAAAKAL-NH2 [Ctrl] | almost no activity | 
Ctrl < hPep1 < hPep2 < hPep3 | 15% | > 60% |  |  |  | 0.265 | H‐LAKLAKA{R8}AKLLKA{S5}AKAL‐NH2 [hPep1, C-terminally amidated amphipathic CPP with one octenyl- and one pentenyl-alanine] |  | hPep1 < hPep2 < hPep3

— publication PMC12414742, “Amphipathic Octenyl‐Alanine Modified Peptides Mediate Effective siRNA Delivery” (Journal of Peptide Science, 2025)
